Data published in patent US20210244720A1, “Therapeutic Tyrosine Kinase Inhibitors for Relapsing Multiple Sclerosis (RMS)” (Genzyme Corporation, priority 2020, published 2021).

Tests used:
CYP2C8 = target: T1, CYP2C8 (Homo sapiens, UniProt P10632); experiment: Preclinical drug metabolism studies, CYP2C8; assay type: in vitro ADME
T1 sequence (P10632 1-490): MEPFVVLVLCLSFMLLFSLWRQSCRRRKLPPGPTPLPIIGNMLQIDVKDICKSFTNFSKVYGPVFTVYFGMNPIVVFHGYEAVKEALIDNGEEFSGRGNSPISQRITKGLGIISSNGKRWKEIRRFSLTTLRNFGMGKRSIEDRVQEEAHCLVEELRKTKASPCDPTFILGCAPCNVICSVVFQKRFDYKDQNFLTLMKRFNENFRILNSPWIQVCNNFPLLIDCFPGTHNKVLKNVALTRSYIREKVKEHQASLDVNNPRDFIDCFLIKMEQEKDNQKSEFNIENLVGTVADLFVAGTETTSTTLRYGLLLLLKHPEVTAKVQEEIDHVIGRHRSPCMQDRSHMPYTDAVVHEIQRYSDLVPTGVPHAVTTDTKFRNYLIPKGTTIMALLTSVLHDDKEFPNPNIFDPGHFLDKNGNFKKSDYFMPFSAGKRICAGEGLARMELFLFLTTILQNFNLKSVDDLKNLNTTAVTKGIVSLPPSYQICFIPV
Text: See Table 12 for the list of drugs not to be used.

RGS1 mRNA in brain = experiment: In vivo mouse study, brain RGS1 Real-time PCR; conditions: naive mice, oral, once a day for 5 days, 0.6, 6, and 24 mg/kg
Experimental: Mice were sacrificed on day 5, 1 h post-final dose, and PBS perfused before brain was isolated. RNA was isolated from brain using the Rneasy Lipid tissue RNA isolation kid (Qiagen). RGS1 was quantified using Real-time PCR and Taqman probe (FIG. 6; one-way ANOVA, **p<0.01).

[1] = tested on: RGS1 and BTK-dependent gene signature in primary mouse microglial cells; conditions: 2.5 μM, IgG 50 μg/mL, 24 h, FPKM
Text: Primary cultures of microglia were obtained from brains of C57BL/6 postnatal mice. The mice were anesthetized with CO2 and subsequently decapitated with sterilized scissors. Brains were harvested and meninges were removed. The brains were placed in ice cold complete DMEM/F12 medium and kept on ice until processing.
The brains were removed from the medium by filtering through a 40 μm cell strainer. […] The dissociation reaction was quenched with an equal volume of complete DMEM/F12. The tissue was centrifuged at 300×g for 7 minutes. The tissue pellet was washed 3 times with complete DMEM/F12, centrifuged at 300×g for 7 minutes. After the final wash, tissue pellet was re-suspended in complete DMEM/F12 (˜1 mL/brain), triturated until no chunks are visible, then filtered through a 70 μm cell strainer. […]
The single cell suspensions were filtered through 70 μm cell strainers, centrifuged at 200×g for 6 minutes, and re-suspended at 1×10^8 cells/mL in separation media. […] After the last wash, the labeled CD11b+ microglia cells were resuspended in serum free NbActiv1 media, counted and re-suspended at the desired concentration. […]
Analysis of the RNASeq library data was conducted within Omicsoft's Array Studio platform following a standard RNAseq protocol. In general, the sequencing reads were quality checked and the samples were mapped to the mouse mm10 reference genome using the ENSEMBL.R89 gene model. […]

CD19+ B-cell counts = experiment: Phase 1 absolute CD19+ B-cell counts
Text: Dose regimen: The dose range chosen for this study is informed by several assessments.

`C=CC(=O)N1CCC[C@@H](n2c(=O)n(-c3ccc(Oc4ccccc4)cc3)c3c(N)nccc32)C1` [the BTK inhibitor, (R)-1-(1-acryloylpiperidin-3-yl)-4-amino-3-(4-phenoxyphenyl)-1H-imidazo[4,5-c]pyridin-2(3H)-one] was tested, and the CYP2C8 metabolism (CYP2C8) was “substrate”, the “RGS1 mRNA expression in brain” value (RGS1 mRNA in brain) was “reduction of RGS1 mRNA expression was observed” and the “RGS1 mRNA expression upregulated with IgG treatment” value [1] was “blocked”. For the same compound, the “dose at which the dose-response relationship for the CD19+ B-cell increase is maximal” value (CD19+ B-cell counts) was “approximately 30 mg once daily”.
